# Results from PubChem BioAssay AID180 (DTP/NCI, 2004).
# Several values for one entry are separate records, joined by “and”; a condition that tells them apart may be missing. Equal values may be shown once.
# Test system: BDF1 mice, Adenocarcinoma 755 s.c., tumor weight T/C
# Test: NCI In Vivo Anticancer Drug Screen. Data for tumor model Adenocarcinoma 755 (subcutaneous) in B6D2F1 (BDF1) mice
# Details: endpoint: mean tumor weight, higher = larger tumour
# Procedure, shortened: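 Readout: T/C, i.e. treated-group measurement over vehicle-control measurement. Endpoint is survival or tumor size in tumor-bearing mice given compound.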
smiles,measurement,setting,value
CC(=O)[C@@]1(O)CC[C@H]2[C@@H]3C[C@H](C)C4=CC(=O)C=C[C@]4(C)[C@@]3(F)[C@@H](O)C[C@@]21C,T/C,"dose: 0.37 mg/kg/injection, schedule: Q#A X022 (sc), vehicle: steriod suspending solution",55 % of control
same,T/C,"dose: 0.5 mg/kg/injection, schedule: Q01DX011 (sc), vehicle: steriod suspending solution",40 % of control
same,T/C,"dose: 0.75 mg/kg/injection, schedule: Q#A X022 (sc), vehicle: steriod suspending solution",67 % of control
same,T/C,"dose: 1.0 mg/kg/injection, schedule: Q03DX004 (sc), vehicle: steriod suspending solution",62 % of control
same,T/C,"dose: 1.5 mg/kg/injection, schedule: Q#A X022 (sc), vehicle: steriod suspending solution",44 % of control
same,T/C,"dose: 1.6 mg/kg/injection, schedule: Q01DX011 (sc), vehicle: steriod suspending solution",57 % of control
same,T/C,"dose: 2.0 mg/kg/injection, schedule: Q03DX004 (sc), vehicle: steriod suspending solution",44 % of control
same,T/C,"dose: 3.0 mg/kg/injection, schedule: Q01DX011 (im), vehicle: steriod suspending solution",43 % of control
same,T/C,"dose: 3.0 mg/kg/injection, schedule: Q01DX011 (sc), vehicle: steriod suspending solution",47 % of control and 51 % of control
same,T/C,"dose: 3.0 mg/kg/injection, schedule: Q#A X022 (sc), vehicle: steriod suspending solution",39 % of control
same,T/C,"dose: 3.2 mg/kg/injection, schedule: Q01DX011 (sc), vehicle: steriod suspending solution",31 % of control
same,T/C,"dose: 4.0 mg/kg/injection, schedule: Q03DX004 (sc), vehicle: steriod suspending solution",72 % of control
same,T/C,"dose: 6.0 mg/kg/injection, schedule: Q01DX011 (im), vehicle: steriod suspending solution",38 % of control
same,T/C,"dose: 6.0 mg/kg/injection, schedule: Q01DX011 (sc), vehicle: steriod suspending solution",16 % of control and 25 % of control
same,T/C,"dose: 6.3 mg/kg/injection, schedule: Q01DX011 (sc), vehicle: steriod suspending solution",49 % of control
same,T/C,"dose: 8.0 mg/kg/injection, schedule: Q03DX004 (sc), vehicle: steriod suspending solution",52 % of control
same,T/C,"dose: 9.0 mg/kg/injection, schedule: Q03DX004 (sc), vehicle: steriod suspending solution",35 % of control
same,T/C,"dose: 12.0 mg/kg/injection, schedule: Q01DX011 (sc), vehicle: steriod suspending solution",16 % of control
same,T/C,"dose: 12.5 mg/kg/injection, schedule: Q01DX006 (iv), vehicle: steriod suspending solution",45 % of control
same,T/C,"dose: 12.5 mg/kg/injection, schedule: Q01DX011 (im), vehicle: steriod suspending solution",21 % of control
same,T/C,"dose: 12.5 mg/kg/injection, schedule: Q01DX011 (ip), vehicle: steriod suspending solution",48 % of control
same,T/C,"dose: 12.5 mg/kg/injection, schedule: Q01DX011 (sc), vehicle: steriod suspending solution",19 % of control and 39 % of control
same,T/C,"dose: 18.0 mg/kg/injection, schedule: Q03DX004 (sc), vehicle: steriod suspending solution",35 % of control
same,T/C,"dose: 22.0 mg/kg/injection, schedule: Q## X002 (sc), vehicle: steriod suspending solution",55 % of control
same,T/C,"dose: 24.0 mg/kg/injection, schedule: Q01DX011 (sc), vehicle: steriod suspending solution",20 % of control
same,T/C,"dose: 25.0 mg/kg/injection, schedule: Q01DX006 (iv), vehicle: steriod suspending solution",30 % of control
same,T/C,"dose: 25.0 mg/kg/injection, schedule: Q01DX011 (im), vehicle: steriod suspending solution",12 % of control
same,T/C,"dose: 25.0 mg/kg/injection, schedule: Q01DX011 (ip), vehicle: steriod suspending solution",42 % of control
same,T/C,"dose: 25.0 mg/kg/injection, schedule: Q01DX011 (sc), vehicle: steriod suspending solution",12 % of control
same,T/C,"dose: 27.5 mg/kg/injection, schedule: Q01DX011 (sc), vehicle: steriod suspending solution",36 % of control and 54 % of control
same,T/C,"dose: 37.0 mg/kg/injection, schedule: Q03DX004 (sc), vehicle: steriod suspending solution",36 % of control
same,T/C,"dose: 43.0 mg/kg/injection, schedule: Q## X002 (sc), vehicle: steriod suspending solution",30 % of control
same,T/C,"dose: 50.0 mg/kg/injection, schedule: Q01DX006 (iv), vehicle: steriod suspending solution",25 % of control
same,T/C,"dose: 50.0 mg/kg/injection, schedule: Q01DX011 (im), vehicle: steriod suspending solution",14 % of control
same,T/C,"dose: 50.0 mg/kg/injection, schedule: Q01DX011 (ip), vehicle: steriod suspending solution",34 % of control
same,T/C,"dose: 50.0 mg/kg/injection, schedule: Q01DX011 (oral), vehicle: steriod suspending solution",47 % of control
same,T/C,"dose: 50.0 mg/kg/injection, schedule: Q01DX011 (sc), vehicle: steriod suspending solution",11 % of control
same,T/C,"dose: 55.0 mg/kg/injection, schedule: Q01DX011 (sc), vehicle: steriod suspending solution",28 % of control
same,T/C,"dose: 75.0 mg/kg/injection, schedule: Q03DX004 (sc), vehicle: steriod suspending solution",18 % of control
same,T/C,"dose: 87.0 mg/kg/injection, schedule: Q01DX001 (sc), vehicle: steriod suspending solution",53 % of control and 66 % of control
same,T/C,"dose: 87.0 mg/kg/injection, schedule: Q07DX002 (sc), vehicle: steriod suspending solution",37 % of control
same,T/C,"dose: 100.0 mg/kg/injection, schedule: Q01DX006 (iv), vehicle: steriod suspending solution",19 % of control
same,T/C,"dose: 100.0 mg/kg/injection, schedule: Q01DX011 (im), vehicle: steriod suspending solution",7 % of control
same,T/C,"dose: 100.0 mg/kg/injection, schedule: Q01DX011 (oral), vehicle: steriod suspending solution",59 % of control
same,T/C,"dose: 100.0 mg/kg/injection, schedule: Q01DX011 (sc), vehicle: steriod suspending solution",13 % of control
same,T/C,"dose: 150.0 mg/kg/injection, schedule: Q03DX004 (sc), vehicle: steriod suspending solution",25 % of control
same,T/C,"dose: 175.0 mg/kg/injection, schedule: Q01DX001 (sc), vehicle: steriod suspending solution",38 % of control and 43 % of control
same,T/C,"dose: 175.0 mg/kg/injection, schedule: Q07DX002 (sc), vehicle: steriod suspending solution",27 % of control
same,T/C,"dose: 200.0 mg/kg/injection, schedule: Q01DX006 (iv), vehicle: steriod suspending solution",14 % of control
same,T/C,"dose: 200.0 mg/kg/injection, schedule: Q01DX011 (im), vehicle: steriod suspending solution",8 % of control
same,T/C,"dose: 200.0 mg/kg/injection, schedule: Q01DX011 (oral), vehicle: steriod suspending solution",42 % of control
same,T/C,"dose: 200.0 mg/kg/injection, schedule: Q01DX011 (sc), vehicle: steriod suspending solution",3 % of control
same,T/C,"dose: 300.0 mg/kg/injection, schedule: Q01DX011 (sc), vehicle: steriod suspending solution",7 % of control
same,T/C,"dose: 300.0 mg/kg/injection, schedule: Q03DX004 (sc), vehicle: steriod suspending solution",15 % of control
same,T/C,"dose: 350.0 mg/kg/injection, schedule: Q01DX001 (sc), vehicle: steriod suspending solution",28 % of control and 47 % of control
same,T/C,"dose: 350.0 mg/kg/injection, schedule: Q07DX002 (sc), vehicle: steriod suspending solution",19 % of control
same,T/C,"dose: 400.0 mg/kg/injection, schedule: Q01DX011 (oral), vehicle: steriod suspending solution",34 % of control
same,T/C,"dose: 400.0 mg/kg/injection, schedule: Q03DX004 (sc), vehicle: steriod suspending solution",19 % of control
same,T/C,"dose: 500.0 mg/kg/injection, schedule: Q01DX011 (oral), vehicle: steriod suspending solution",37 % of control
same,T/C,"dose: 600.0 mg/kg/injection, schedule: Q01DX011 (oral), vehicle: steriod suspending solution",38 % of control
same,T/C,"dose: 600.0 mg/kg/injection, schedule: Q03DX004 (sc), vehicle: steriod suspending solution",15 % of control
same,T/C,"dose: 700.0 mg/kg/injection, schedule: Q01DX001 (sc), vehicle: steriod suspending solution",26 % of control and 43 % of control
same,T/C,"dose: 700.0 mg/kg/injection, schedule: Q07DX002 (sc), vehicle: steriod suspending solution",19 % of control
same,T/C,"dose: 1000.0 mg/kg/injection, schedule: Q01DX001 (sc), vehicle: steriod suspending solution",36 % of control and 45 % of control
same,T/C,"dose: 1000.0 mg/kg/injection, schedule: Q## X002 (sc), vehicle: steriod suspending solution",22 % of control
same,T/C,"dose: 1500.0 mg/kg/injection, schedule: Q01DX001 (sc), vehicle: steriod suspending solution",24 % of control and 40 % of control
same,T/C,"dose: 1500.0 mg/kg/injection, schedule: Q## X002 (sc), vehicle: steriod suspending solution",24 % of control
CCOC=Nc1c(N)ncnc1F,T/C,"dose: 30.0 mg/kg/injection, schedule: Q01DX011 (ip), vehicle: carboxymethylcellulose (CMC)",92 % of control
same,T/C,"dose: 60.0 mg/kg/injection, schedule: Q01DX011 (ip), vehicle: carboxymethylcellulose (CMC)",89 % of control
same,T/C,"dose: 120.0 mg/kg/injection, schedule: Q01DX011 (ip), vehicle: carboxymethylcellulose (CMC)",57 % of control
same,T/C,"dose: 240.0 mg/kg/injection, schedule: Q01DX011 (ip), vehicle: carboxymethylcellulose (CMC)",55 % of control
